Test results published in PubChem BioAssay AID1963980 (Molecular Pharmacology Branch, DTP, NCI, 2024).

Tested on: 475296-252-R-J1-PDC spheroid viability
Assay: Anticancer human tumor 475296-252-R-J1-PDC patient-derived rectal carcinoma cell line growth inhibition [PI3K]
Details: spheroids with HUVEC and MSC; for IC50: curve of first compound; for viability, T/C: stronger effect = lower value
Procedure, shortened: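 Stroma-containing spheroids: tumor line, pooled-donor HUVEC, hMSC. Treatments: targeted agents with PI3K inhibitors. Dosing: clinically relevant, half-log spacing, 10 microM ceiling without known Cmax. Read-out: cell viability.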
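Note: spheroids exposed to agents for seven days before readout.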

IC50 (second compound 0.0316 µM): > 10 µM
IC50 (second compound 0.1 µM): > 10 µM
IC50 (second compound 0.316 µM): > 10 µM
IC50 (second compound 1 µM): > 10 µM
IC50 (second compound 3.16 µM): > 10 µM
IC50 (second compound 10 µM): > 10 µM
Compound: CC1(C)CCC(Nc2ncc(C(F)(F)F)c(-c3c[nH]c4c(P(C)(C)=O)c(C#N)ccc34)n2)CN1 (configuration not stated) + Cc1nc(NC(=O)N2CCCC2C(N)=O)sc1-c1ccnc(C(C)(C)C(F)(F)F)c1
viability, T/C (second compound 0.0316 µM, first compound 0.0316 µM): 89.6%
viability, T/C (second compound 0.0316 µM, first compound 0.1 µM): 90.4%
viability, T/C (second compound 0.0316 µM, first compound 0.316 µM): 119%
viability, T/C (second compound 0.0316 µM, first compound 1 µM): 139%
viability, T/C (second compound 0.0316 µM, first compound 3.16 µM): 178%
viability, T/C (second compound 0.0316 µM, first compound 10 µM): 82.4%
viability, T/C (second compound 0.1 µM, first compound 0.0316 µM): 97.2%
viability, T/C (second compound 0.1 µM, first compound 0.1 µM): 96.4%
viability, T/C (second compound 0.1 µM, first compound 0.316 µM): 106%
viability, T/C (second compound 0.1 µM, first compound 1 µM): 142%
viability, T/C (second compound 0.1 µM, first compound 3.16 µM): 176%
viability, T/C (second compound 0.1 µM, first compound 10 µM): 91.7%
viability, T/C (second compound 0.316 µM, first compound 0.0316 µM): 95.2%
viability, T/C (second compound 0.316 µM, first compound 0.1 µM): 104%
viability, T/C (second compound 0.316 µM, first compound 0.316 µM): 97.3%
viability, T/C (second compound 0.316 µM, first compound 1 µM): 129%
viability, T/C (second compound 0.316 µM, first compound 3.16 µM): 193%
viability, T/C (second compound 0.316 µM, first compound 10 µM): 83.2%
viability, T/C (second compound 1 µM, first compound 0.0316 µM): 100%
viability, T/C (second compound 1 µM, first compound 0.1 µM): 111%
viability, T/C (second compound 1 µM, first compound 0.316 µM): 110%
viability, T/C (second compound 1 µM, first compound 1 µM): 143%
viability, T/C (second compound 1 µM, first compound 3.16 µM): 165%
viability, T/C (second compound 1 µM, first compound 10 µM): 81.5%
viability, T/C (second compound 3.16 µM, first compound 0.0316 µM): 99.3%
viability, T/C (second compound 3.16 µM, first compound 0.1 µM): 106%
viability, T/C (second compound 3.16 µM, first compound 0.316 µM): 109%
viability, T/C (second compound 3.16 µM, first compound 1 µM): 121%
viability, T/C (second compound 3.16 µM, first compound 3.16 µM): 139%
viability, T/C (second compound 3.16 µM, first compound 10 µM): 72.9%
viability, T/C (second compound 10 µM, first compound 0.0316 µM): 104%
viability, T/C (second compound 10 µM, first compound 0.1 µM): 97.1%
viability, T/C (second compound 10 µM, first compound 0.316 µM): 94%
viability, T/C (second compound 10 µM, first compound 1 µM): 107%
viability, T/C (second compound 10 µM, first compound 3.16 µM): 121%
viability, T/C (second compound 10 µM, first compound 10 µM): 62.9%
